Legend:
[1] = tested on: hamsters with cerebellar ataxia; experiment: Rotarod test in hamsters with cerebellar ataxia; format: in vivo, hamster; conditions: for Time of falling from rotarod: hamster with cerebellar ataxia, agent of Example 1, 0.5 ml/hamster intraperitoneally once a day for 56 days; for improving effect on motor coordination (in words): cerebellar ataxia hamsters, agents of Example 1 compared among pentamethine cyanine dye compounds
Description: Since NK-4 was confirmed to have a neurodegenerative inhibitory action in Experiment 1, hamsters with cerebellar ataxia (cerebellar ataxia is called “cerebellar A” and hamsters with cerebellar ataxia are called “hamsters with cerebellar A”, hereinafter) as a suitable model for human neurodegenerative diseases (e.g., spinal cerebellar degeneration) were subjected to examine the influence of NK-4 administration on their behaviors and brain tissues. Twenty-five hamsters with natural mutation (Nna1 inhibition), which are known to lose Purkinje's cells after three-weeks of age and then induce a spontaneous onset of kinetic motor ataxia after seven-weeks of age (see Akita K. et al., “J. Neurogenetics”, Vol. 21, pp. 19-29, 2007), had been fed at Hayashibara Biochemical Laboratories., Inc., Okayama, Japan, were randomly allocated to the test groups 1 to 5, five heads in each group, as shown in Table 2. Prior to the onset of cerebellar A (at three-weeks of age), PBS was started to administer to the hamsters in the test group 1 at a dose of 10 ml/kg/day. Prior to the onset of cerebellar A (at three-weeks of age), NK-4 was started to be administered to the hamsters in the test groups 2 to 4 at a daily dose of 20 μg/kg, 100 μg/kg or 500 μg/kg. “IGF-1, human, a product name of insulin-like growth factor, commercialized by Assaypro LLC, MO, USA. These administered ingredients were intraperitoneally administered daily to hamsters once a day up to 10-weeks of age. The degree of symptom of cerebellar A and the improvement effect on the symptom by NK-4 were evaluated with an index of improvement in motor coordination of hamsters by conducting once a week the later described rotarod test and the slant tolerance test. At the age of 10-weeks, the hamsters were subjected to counting the falling down frequency and extracted their brains, which were then histologically evaluated. In parallel, the concentration of glutamic acid in the bloods and cerebrospinal fluids (CSF) of the hamsters was assayed. As a test group 6, five normal hamsters, with the same age as the hamsters with cerebellar A used in the test groups 1 to 5, were provided and tested similarly as the hamsters with cerebellar A in such a manner of intraperitoneally administering PBS to them at a dose of 10 ml/kg/day once a day up to 10-weeks of age.
As an index for coordinated movement, it was used a duration time of hamster's movement to staying on a rotarod by locomotion in synchronization with the turn of the rotarod; placing a hamster on an apparatus with a rotarod (having a diameter of 60 mm, prepared by Hayashibara Biochemical Laboratories, Inc., Okayama, Japan), turning at a constant rate of six rpm, and measuring the time until the hamster falls down from the rotarod (see Fernandez et al., “Proc. Natl. Acad. Sci. USA”, Vol. 95, pp. 1253-1258, 1998). The test was repeated six times for each hamster, where five-times of tests starting from the initiation of the test were made as a preliminary examination, and the time until each hamster fell down from the rotarod (called “falling time”, hereinafter) was measured, followed by averaging the falling times for each group consisting of five heads. The falling time was measured until 180 seconds. Based on the results, the relationship between the age and the falling time for each hamster with cerebellar A (test group 1) administered with PBS was graphed. […]
Similarly as in Experiment 2, 130 hamsters with cerebellar ataxia, born within the same week and 3-weeks of age, were randomly divided into 13 groups, consisting of 10 hamsters, respectively. […]

PC12-HS cells = experiment: Evaluation B: neurite-outgrowth action in presence of NGF; format: cell-based, rat; conditions: for Evaluation B: Neurite-outgrowth action: 50 μl of 400 ng/ml test sample solution per well + NGF final 5 ng/ml
[2] = tested on: ICR mice administered with amyloid β fragment; experiment: Novel object recognition test, mouse administered with amyloid β fragment, agents of Example 1; format: in vivo; set-up: key: (novel − memorized seeking time)/(novel + memorized seeking time); conditions: agent of Example 1, 0.3 ml/head intraperitoneally once a day up to the 8th day
Experimental: One hundred and thirty ICR mice (commercialized by Charles Liver Laboratories Japan Inc., Kanagawa, Japan) were randomly divided into 13 groups, consisting of 10 mice in each group. Amyloid β fragment, represented by an amino acid sequence of SEQ ID NO: 1, used in Experiment 3 was aged at 37° C. for four days, and administered to the lateral ventricle of each mouse in an amount of 9 nmol/6 μl/mouse (the administration method is referred to “Brain Research”, Vol. 706, pp. 181-193 (1996)). […] The mice (10 heads) in the remaining one group were intraperitoneally administered with a sterilized 10% maltose solution (pyrogen-free) once a day up to the 8th day in an amount of 0.3 ml/mouse (control). On the 8th day after the administration, novel object recognition test (see, Japanese Patent Kokai No. 2008-193941) was performed and the average discrimination index (the ratio of prolonged seeking time for novel object to the total seeking time) as a cognitive function index were shown in Table 26. On the 9th day after the administration, the brain of the mice was anatomically isolated, prepared into tissue samples in conventional manner. Depositions of aggregation of amyloid fragment were observed by staining with Congo red or thioflavin T, and degeneration or defect of hippocampal pyramidal cells concerned with cognitive function. The degeneration or the defect of hippocampal pyramidal cells was evaluated by 4-point grade score, by regarding the condition of the control without administration of amyloid β fragment as “none (O)”, “slight (1)”, “moderate (2)”, and “sever (3)”, and the average scores of 10 mice are shown in Table 20.
An experiment apparatus (a glass box of 30 cm in depth, 45 cm in width, and 30 cm in height) and two kinds of objects to be memorized by mice were provided. On the day before the test, the mice were allowed to seek freely in the experiment apparatus with no seeking object for 10 minutes for acclimation. On the test day, the following test was performed twice at an interval of 60 minutes. In the first trial, the same two objects were placed in the apparatus at its both ends, and the mouse was allowed to seek freely for 10 minutes. On the second trial, one of the objects used in the first test was replaced with a different kind of object, and then the mouse was allowed to seek freely for five minutes. In each experiment, when the mouse brought its muffle close to the object within 1-cm apart from the object, or made its muffle or whiskers to contact with the object, the mouse was judged to have a seeking behavior, and the seeking time thereof was measured. The object discrimination index [={(seeking time for novel object)−(seeking time for memorized object)}/{(seeking time of novel object)+(seeking time of memorized object)}] was calculated. The object discrimination index means the ratio of an increased seeking time for novel object to the total seeking time, and the ratio becomes larger when the memory of the once sought object was more strongly held, and it becomes smaller when the memory was more weakly held.

[3] = final concentration of compound 200 ng/ml
[4] = final concentration of compound 400 ng/ml
[5] = final concentration of compound 800 ng/ml
[6] = final concentration of compound 1600 ng/ml
[7] = compound concentration 80 ng/ml
[8] = compound concentration 400 ng/ml
[9] = compound concentration 2000 ng/ml
[10] = compound concentration 10000 ng/ml

| SMILES | Time of falling from rotarod [1] [s] | Evaluation B: Neurite-outgrowth action (PC12-HS cells; 3 days) | Rate of cells exhibiting neurite outgrowth (%) (PC12-HS cells; [3]) | Rate of cells exhibiting neurite outgrowth (%) (PC12-HS cells; [4]) | Rate of cells exhibiting neurite outgrowth (%) (PC12-HS cells; [5]) | Rate of cells exhibiting neurite outgrowth (%) (PC12-HS cells; [6]) | Object discrimination index [2] | Action on neurite outgrowth (%) (PC12-HS cells; [7]) | Action on neurite outgrowth (%) (PC12-HS cells; [8]) | Action on neurite outgrowth (%) (PC12-HS cells; [9]) | Action on neurite outgrowth (%) (PC12-HS cells; [10]) | improving effect on motor coordination (in words) [1] | Percentage (%) of cells with neurite outgrowth (PC12-HS cells; 50 μl/well of 2 μg/ml test solution + NGF final 5 ng/ml, 3 days) [%] |
| --- | --- | --- | --- | --- | --- | --- | --- | --- | --- | --- | --- | --- | --- |
| CC[n+]1ccccc1/C=C/c1ccc(N(C)C)cc1 [NK-557] | 39.9 ± 5.1 | ∘ (The test sample with a neurite outgrowth rate of 30% or higher was judged to be equivalent or more (∘) compared with NK-4) | 10> % | 20 ± 2 | 43 ± 5 | 84 ± 42 | 0.4 |  |  |  |  |  |  |
| CCCCCCCCN1C=CC(=CC=C(C=Cc2cc[n+](CCCCCCCC)c3ccccc23)c2cc[n+](CCCCCCCC)c3ccccc23)c2ccccc21.[I-].[I-] [NK-147] | 56.5 ± 9.8 |  |  |  |  |  | 0.2 | 32 ± 7 | 50 ± 5 | 70 ± 11 | 35 ± 14% |  |  |
| CCCCN1C=C/C(=C/C=C(/C=C/c2cc[n+](CCCC)c3ccccc23)c2cc[n+](CCCC)c3ccccc23)c2ccccc21 [NK-26] | 90.0 ± 7.1 |  |  |  |  |  | 0.1 | 72 ± 4 | 71 ± 7 | 25 ± 7 | 10< % | particularly high improving effect on motor coordination |  |
| CCCCCCCCCN1C(C)=CS\C1=C/C=C(\C=C\c1scc(C)[n+]1CCCCCCCCC)c1scc(C)[n+]1CCCCCCCCC.[I-].[I-] [NK-393] | 86.5 ± 1.8 |  |  |  |  |  | 0.2 |  |  |  |  | particularly high improving effect on motor coordination | 68 |
| CCN1/C(=C/C=C(/C=C/c2sc3ccccc3[n+]2CC)c2sc3ccccc3[n+]2CC)Sc2ccccc21.[I-].[I-] [NK-100] | 61.9 ± 9.4 | ∘ (The test sample with a neurite outgrowth rate of 30% or higher was judged to be equivalent or more (∘) compared with NK-4) | 36 ± 2% | 40 ± 8 | 52 ± 7 | 89 ± 6 | 0.1 |  |  |  |  |  |  |
| COc1ccc2oc(/C=C/c3ccc(N(C)C)cc3)[n+](C)c2c1 [NK-1516] | 42.4 ± 6.3 | ∘ (The test sample with a neurite outgrowth rate of 30% or higher was judged to be equivalent or more (∘) compared with NK-4) |  |  |  |  | 0.4 |  |  |  |  |  |  |
| CN(C)c1ccc(/C=C/c2oc3ccccc3[n+]2C)cc1 [NK-528] | 37.5 ± 11.2 | ∘ (The test sample with a neurite outgrowth rate of 30% or higher was judged to be equivalent or more (∘) compared with NK-4) |  |  |  |  | 0.3 |  |  |  |  |  |  |

— patent US20120035187A1 (priority 2009, published 2012)
